Earlier results on 2 compounds are cited in patent US20030073219A1, “Crystal structure” (priority 2001, published 2003).

In general, Km refers to the substrate concentration at which the rate is half of its maximum.

The data set addresses ApbA protein (ketopantoate reductase) (Salmonella typhimurium, UniProt P37402). The following applies: purified ApbA protein from S. typhimurium; substrate/cofactor KM; read-out: apparent KM.

Chain of ApbA protein (ketopantoate reductase) (P37402 whole entry): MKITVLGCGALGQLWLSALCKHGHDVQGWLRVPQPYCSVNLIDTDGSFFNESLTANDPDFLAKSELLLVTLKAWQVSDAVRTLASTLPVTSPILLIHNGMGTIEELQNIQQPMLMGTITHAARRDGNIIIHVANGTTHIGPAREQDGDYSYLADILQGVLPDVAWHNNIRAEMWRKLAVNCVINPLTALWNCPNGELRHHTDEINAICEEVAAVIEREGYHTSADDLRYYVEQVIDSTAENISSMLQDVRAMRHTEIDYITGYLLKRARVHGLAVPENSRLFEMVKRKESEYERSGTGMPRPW

`NC(=O)C1=CN([C@@H]2O[C@H](COP(=O)(O)OP(=O)(O)OC[C@H]3O[C@@H](n4cnc5c(N)ncnc54)[C@H](OP(=O)(O)O)[C@@H]3O)[C@@H](O)[C@H]2O)C=CC1` [NADPH]: the Km was 770 µM.

For the compound `CC(C)(CO)C(=O)C(=O)O` [ketopantoate], the Michaelis constant (Km) was 740 µM.
